Molecular target: T1, Human AMPK α2ß2γ1 (Homo sapiens, UniProt O43741+P54646)
T1 construct: The full length cDNAs of human AMPK ß2 (NM_005399.3) and human AMPK α2 (NM_006252.3); The full length cDNAs of human AMPK ß2 (NM_005399.3); 6xHis (N); made in house; host or cells: Escherichia coli BL21 CodonPlus (DE3)-RIL
Experiment: Test Example 2: evaluation of an activator for AMP-activated protein kinase (AMPK), LabChip mobility shift assay with CaMKK2-phosphorylated enzyme
Assay type: biochemical
Settings: for EC150 (compound concentration showing 150% relative to the control (100%)): FL-Peptide 7 substrate, 25° C., 2 hours; for Emax: relative to control (100%), read-out: Emax (maximum rate of increase in activity within the measurement range)
Procedure, shortened: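 E. coli-expressed His-tagged human AMPK α2β2γ1 preactivated with GST-CaMKK2 (0.2 mM ATP, 25° C, 1–1.5 h), preincubated 10 min with compound (1% DMSO), then reacted 2 h at 25° C with 3 μM FL-Peptide 7 and 0.4 mM ATP in substrate solution, pH 7.0. Mobility-shift conversion rate gives % activity increase over no-compound control.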

T1 sequence (P54646 whole entry): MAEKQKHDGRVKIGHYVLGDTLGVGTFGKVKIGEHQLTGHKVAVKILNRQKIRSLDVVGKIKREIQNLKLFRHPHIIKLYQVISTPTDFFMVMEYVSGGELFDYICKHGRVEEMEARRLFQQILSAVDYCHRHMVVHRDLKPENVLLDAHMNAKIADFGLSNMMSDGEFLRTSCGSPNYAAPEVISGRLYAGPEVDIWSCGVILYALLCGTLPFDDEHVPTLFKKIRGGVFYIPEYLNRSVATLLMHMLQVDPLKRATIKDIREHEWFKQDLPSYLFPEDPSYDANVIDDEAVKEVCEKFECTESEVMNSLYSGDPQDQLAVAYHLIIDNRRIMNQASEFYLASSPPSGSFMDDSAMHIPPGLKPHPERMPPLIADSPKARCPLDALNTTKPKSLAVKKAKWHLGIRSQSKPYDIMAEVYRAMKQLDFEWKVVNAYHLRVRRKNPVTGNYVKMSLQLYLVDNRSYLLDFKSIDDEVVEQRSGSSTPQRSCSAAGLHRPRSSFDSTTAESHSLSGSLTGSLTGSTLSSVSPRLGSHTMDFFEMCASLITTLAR
T1 sequence (O43741 whole entry): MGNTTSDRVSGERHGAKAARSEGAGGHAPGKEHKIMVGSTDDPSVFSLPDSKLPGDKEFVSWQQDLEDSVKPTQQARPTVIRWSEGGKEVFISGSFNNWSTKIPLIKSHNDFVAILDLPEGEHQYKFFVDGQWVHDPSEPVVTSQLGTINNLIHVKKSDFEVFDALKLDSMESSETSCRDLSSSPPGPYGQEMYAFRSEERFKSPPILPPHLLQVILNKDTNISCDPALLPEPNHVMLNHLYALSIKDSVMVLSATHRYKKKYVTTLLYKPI
T1 sequence (P54619 whole entry partner): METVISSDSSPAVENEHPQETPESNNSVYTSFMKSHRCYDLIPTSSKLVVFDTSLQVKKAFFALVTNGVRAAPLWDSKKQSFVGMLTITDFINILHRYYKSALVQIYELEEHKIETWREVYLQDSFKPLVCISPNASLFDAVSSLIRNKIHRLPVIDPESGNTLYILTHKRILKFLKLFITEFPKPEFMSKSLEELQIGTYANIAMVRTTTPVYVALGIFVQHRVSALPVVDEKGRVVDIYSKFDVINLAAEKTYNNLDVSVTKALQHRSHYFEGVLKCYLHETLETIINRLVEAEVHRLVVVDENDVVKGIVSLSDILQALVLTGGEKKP

Row | Compound | EC150 (compound concentration showing 150% relative to the control (100%)) [nM] | Emax [%]
1 | O=c1[nH]cc(-c2cc(F)c3c(c2)CC[C@@H]3Nc2nc3nc(O[C@@H]4CO[C@H]5[C@@H]4OC[C@H]5O)[nH]c3cc2Cl)cc1F [Compound I-2-63] | 3.9 | 653
2 | COc1ncc(-c2cc(F)c3c(c2)CC[C@@H]3Nc2nc3nc(O[C@@H]4CO[C@H]5[C@@H]4OC[C@H]5O)[nH]c3cc2Cl)cn1 [Compound I-2-56] | 0.81 | 681
3 | OCC/C=C/c1cc(F)c2c(c1)CCC2Nc1nc2nc(O[C@@H]3CO[C@H]4[C@@H]3OC[C@H]4O)[nH]c2cc1Cl (stereo partly drawn) [Compound I-1-100] | 3.5 | 441
4 | O[C@@H]1CO[C@H]2[C@@H]1OC[C@H]2Oc1nc2nc(NC3CCc4cc(OCCOC5CCCC5)cc(F)c43)c(Cl)cc2[nH]1 (stereo partly drawn) [Compound I-2-42] | 9.1 | 600
5 | COCC1CC1c1cc(F)c2c(c1)CC[C@@H]2Nc1nc2nc(O[C@@H]3CO[C@H]4[C@@H]3OC[C@H]4O)[nH]c2cc1Cl (stereo partly drawn) [Compound I-2-02] | 2.4 | 557
6 | O[C@@H]1CO[C@H]2[C@@H]1OC[C@H]2Oc1nc2nc(NC3CCc4cc(OC5COC5)cc(F)c43)c(Cl)cc2[nH]1 (stereo partly drawn) [Compound I-2-51] | 4.7 | 688
7 | CC(C)(C)OCCOc1cc(F)c2c(c1)CCC2Nc1nc2nc(O[C@@H]3CO[C@H]4[C@@H]3OC[C@H]4O)[nH]c2cc1Cl (stereo partly drawn) [Compound I-2-43] | 31 | 612
8 | COCC(=O)NCCOc1cc(F)c2c(c1)CCC2Nc1nc2nc(O[C@@H]3CO[C@H]4[C@@H]3OC[C@H]4O)[nH]c2cc1Cl (stereo partly drawn) [Compound I-2-33] | 3 | 704
9 | O[C@@H]1CO[C@H]2[C@@H]1OC[C@H]2Oc1nc2nc(NC3CCc4cc(-c5ccnnc5)cc(F)c43)c(Cl)cc2[nH]1 (stereo partly drawn) [Compound I-1-91] | 1.2 | 466
10 | O[C@@H]1CO[C@H]2[C@@H]1OC[C@H]2Oc1nc2cc(Cl)c(NC3CCc4cc(OCCOC(F)F)cc(F)c43)nc2[nH]1 (stereo partly drawn) [Compound I-2-14] | 5.6 | 594
11 | O[C@@H]1CO[C@H]2[C@@H]1OC[C@H]2Oc1nc2nc(NC3CCc4cc(OCCOC5CC5)cc(F)c43)c(Cl)cc2[nH]1 (stereo partly drawn) [Compound I-2-40] | 4.1 | 604
12 | CCc1ncc(-c2cc(F)c3c(c2)CC[C@@H]3Nc2nc3nc(O[C@@H]4CO[C@H]5[C@@H]4OC[C@H]5O)[nH]c3cc2Cl)cn1 [Compound I-2-69] | 3 | 598
13 | CC(C)(O)C#Cc1cc(F)c2c(c1)CC[C@@H]2Nc1nc2nc(O[C@@H]3CO[C@H]4[C@@H]3OC[C@H]4O)[nH]c2cc1Cl [Compound I-2-77] | 3.8 | 650
14 | O[C@@H]1CO[C@H]2[C@@H]1OC[C@H]2Oc1nc2nc(OC3CCc4cc(-c5cscn5)cc(F)c43)c(Cl)cc2[nH]1 (stereo partly drawn) [Compound I-1-74] | 9.9 | 373
15 | O[C@@H]1CO[C@H]2[C@@H]1OC[C@H]2Oc1nc2nc(NC3CCc4cc(OC5CCOCC5)cc(F)c43)c(Cl)cc2[nH]1 (stereo partly drawn) [Compound I-1-35] | 4.3 | 402
16 | COCOCCOc1cc(F)c2c(c1)CCC2Nc1nc2nc(O[C@@H]3CO[C@H]4[C@@H]3OC[C@H]4O)[nH]c2cc1Cl (stereo partly drawn) [Compound I-2-44] | 3.8 | 595
17 | CC(C)(O)CCOc1cc(F)c2c(c1)CCC2Nc1nc2nc(O[C@@H]3CO[C@H]4[C@@H]3OC[C@H]4O)[nH]c2cc1Cl (stereo partly drawn) [Compound I-1-88] | 5.9 | 376
18 | COCCNc1cnc2c(c1)CCC2Nc1nc2nc(O[C@@H]3CO[C@H]4[C@@H]3OC[C@H]4O)[nH]c2cc1Cl (stereo partly drawn) [Compound I-1-14] | 33 | 371

From US20190135834A1, “5-SUBSTITUTED AZABENZIMIDAZOLE DERIVATIVE HAVING ???? ACTIVATION ACTION” (Shionogi & Co., Ltd., priority 2016, published 2019)
